The test system of assay [1] is vascular smooth muscle cells. As to the kind of experiment: Investigation of calcification of vascular smooth muscle cells (silver nitrate staining, optical microscope). The class given is cell-based, cattle. The conditions noted are these: inorganic phosphate (Pi)-induced, 100 and 200 μM, cultured 10 days, FIG. 1.
Procedure: The surrounding tissues were removed from the thoracoabdominal aorta isolated from male cattle, and endothelial cells that line blood vessels were removed. The cleaned blood vessels were divided into small fragments, which were then aligned on a culture dish containing Dulbecco's modified Eagle's medium (DMEM, Low Glucose, Thermo Fisher Scientific, USA) supplemented with 20% fetal bovine serum (FBS, Hyclone, Australia). Thereafter, culturing was performed in a cell incubator at 37° C. and 5% CO2 for 3-4 weeks. The vascular smooth muscle cells stretching out around the vascular tissues were subjected to primary culture with media changed every two days.
The vascular smooth muscle cells cultured in Preparation Example 1 above were stabilized by subculture in DMEM (high glucose) supplemented with penicillin/streptomycin antibiotics and 10% FBS. […]
After the induction of calcification by the method in Preparation Example 2 above, the media were removed from the culture dishes, followed by washing with phosphate buffer saline (PBS) three times. […] Thereafter, the cells were washed with primary distilled water two or three times, and then were determined for a degree of calcification through an optical microscope (BX53 microscope, Olympus, Japan).
The test system of assay [2] is vascular smooth muscle cells. In words: Quantification of calcium in vascular smooth muscle cells. The conditions noted are these: inorganic phosphate-induced, 100 and 200 μM, corrected by protein amount, p<0.01 vs Vehicle, FIG. 2. It counts as cell-based, cattle.
Procedure: The surrounding tissues were removed from the thoracoabdominal aorta isolated from male cattle, and endothelial cells that line blood vessels were removed. The cleaned blood vessels were divided into small fragments, which were then aligned on a culture dish containing Dulbecco's modified Eagle's medium (DMEM, Low Glucose, Thermo Fisher Scientific, USA) supplemented with 20% fetal bovine serum (FBS, Hyclone, Australia). Thereafter, culturing was performed in a cell incubator at 37° C. and 5% CO2 for 3-4 weeks. The vascular smooth muscle cells stretching out around the vascular tissues were subjected to primary culture with media changed every two days. […]
After the induction of calcification by the method in Preparation Example 2 above, the media were removed from the culture dishes, followed by washing with PBS. Then, the cells were decalcified by treatment with 0.6 N HCl at 4° C. for 24 hours, The supernatant was recovered for the use in the quantification of calcium, and proteins were extracted from the cells by using 0.1 N NaOH/0.1% SDS, and quantified by using the BCA method. […]
(ODSAMPLE and ODBLANK represent the OD612nm values of calcium sample and blank (water), respectively; and the slope represents the inclination value on the measured absorbance graph)
Assay [3] has as its system C57BL/6J mice. As to the kind of experiment: In vivo vitamin D3-induced vascular calcification, Von Kossa staining of aorta. As to conditions: FIG. 3. From the text:
(§1) C57BL/6J mice aged 8-9 weeks were grouped into 5 groups of 7 mice each, and four groups (one group being used as a control) underwent the induction of vascular calcification by subcutaneous administration of a high dose (9.0×10^5 IU) of vitamin D3 (Vit. D3) once a day for a total of 3 days.
First, on the 10th day after the administration of vitamin D3, the mice were sacrificed and the abdomen was opened, and then the aorta was separated by cleanly removing surrounding tissues of the aorta, and fixed with 4% paraformaldehyde (PFA) for 24 hours. The fixed aorta was washed, immersed in a 5% silver nitrate solution, and incubated under UV light for 30 minutes.

Assay [4] relates to C57BL/6J mice. As to the kind of experiment: In vivo vitamin D3-induced vascular calcification, calcium quantification in aorta. As to conditions: FIG. 4.
Text: as §1
Additionally, on the 10th day after the administration of vitamin D3, the mice were sacrificed and the abdomen was opened, and then the aorta was separated by cleanly removing surrounding tissues and frozen in liquid nitrogen. The frozen tissues were thawed, weighed after the removal of moisture, and then subjected to decalcification with a 0.6 N HCl solution. The colorimetric Ca quantification kit (Bioassay DICA-500) was used to quantify calcium in the 0.6 N HCl solution used in the decalcification, and the calcium quantification was corrected by using the tissue weight.

For the compound `CC(=C(CCO)SSCC1CCCO1)N(C=O)Cc1cnc(C)nc1N` (stereo in doubt) [fursultiamine, thiamine tetrahydrofurfuryl disulfide], the “calcification (black dots)” value in assay [1] is listed as “inhibited”. The “calcium amount increased by inorganic phosphate” value in assay [2] is “decreased”. For the same compound, the “colored parts of aorta (Von Kossa staining)” value in assay [3] (10 mg/kg and 30 mg/kg oral once a day for 13 days) is “reduced (recovered) dose-dependently”. Moreover, in assay [3] (30 mg/kg oral), the “degree of recovery compared with the DCA administration group (positive control)” value was “excellent”. In assay [4] (10 mg/kg and 30 mg/kg oral once a day for 13 days, corrected by tissue weight), the “amount of calcium in the aorta” value was “decreased dose-dependently”. In assay [4] (10 mg/kg and 30 mg/kg oral), the “degrees of decrease of calcium compared with the DCA group (positive control)” value was “excellent”.
Regarding `C=CCSS/C(CCO)=C(/C)N(C=O)Cc1cnc(C)nc1N` [allithiamine, thiamine allyl disulfide], the “calcification (black dots)” value in assay [1] is recorded as “inhibited”. In addition, the “calcium amount increased by inorganic phosphate” value in assay [2] is “decreased”.

(Values after patent US11331317B2, “Composition for treating vascular or cardiac valvular calcification, containing thiamine derivative” (KYUNGPOOK NATIONAL UNIVERSITY INDUSTRY-ACADEMIC COOPERATION …, priority 2018, dated 2022).)
